The structures appear in SMILES notation.

The assay concerns the target T1, Enoyl-acyl carrier reductase ENR (Toxoplasma gondii, UniProt Q6UCJ9).
T1 sequence (Q6UCJ9 whole entry): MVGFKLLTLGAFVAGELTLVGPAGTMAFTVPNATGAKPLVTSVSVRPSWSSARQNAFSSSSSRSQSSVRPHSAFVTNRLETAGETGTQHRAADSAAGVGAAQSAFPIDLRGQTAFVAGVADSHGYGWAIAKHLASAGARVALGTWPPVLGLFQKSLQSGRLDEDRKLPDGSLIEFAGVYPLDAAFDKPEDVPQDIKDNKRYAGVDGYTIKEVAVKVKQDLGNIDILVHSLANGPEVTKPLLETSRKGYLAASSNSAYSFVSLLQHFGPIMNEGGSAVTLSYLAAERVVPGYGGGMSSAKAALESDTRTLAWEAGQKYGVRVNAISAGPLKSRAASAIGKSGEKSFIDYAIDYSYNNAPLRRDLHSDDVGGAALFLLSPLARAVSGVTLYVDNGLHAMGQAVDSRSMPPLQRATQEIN
Nature of the assay: TgENR Inhibition Assay. The conditions noted are these: pH 7.5.
In general, IC50 refers to the midpoint of a concentration-inhibition curve. `Oc1cc(Cl)ccc1Oc1ccc(NCc2ccccc2)cc1Cl` registered an IC50 of 13 nM. Take `Oc1ccc(Oc2ccc(Cl)cc2O)c(Cl)c1`: it took 3 nM to reach half-maximal inhibition (IC50). Next, `N#Cc1ccccc1CNc1ccc(Oc2ccc(Cl)cc2O)c(Cl)c1`: 16 nM. Turning to `CCc1ccc(Oc2ccc(Cl)cc2Cl)c(O)c1` [2‐(2,4‐dichlorophenoxy)‐5‐ethylphenol (11)], the IC50 came out at 8 nM. Next, `CCCCc1cn(Cc2ccc(Oc3ccc(Cl)cc3O)c(Cl)c2)nn1` [2‐{4‐[(4‐butyl‐1,2,3‐triazol‐1‐yl)methyl]‐2‐ chlorophenoxy}‐5‐chlorophenol (25)]: 43 nM; `N#Cc1ccc(Oc2ccc(Cl)cc2Cl)c(O)c1` [4‐(2,4‐dichlorophenoxy)‐3‐hydroxybenzonitrile (19)]: 24 nM. Next, `Oc1cc(Cl)ccc1Oc1ccc(Cn2ccnn2)cc1Cl` [5‐chloro‐2‐[2‐chloro‐4‐(1,2,3‐triazol‐1‐ ylmethyl)phenoxy]phenol (24)]: 26 nM. Next, `Oc1cc(Cl)ccc1Oc1ccc(CNc2ccccc2)cc1Cl` [5‐chloro‐2‐{2‐chloro‐4‐ [(phenylamino)methyl]phenoxy}phenol (26)]: 31 nM. `Cc1cc(CC(=O)NCc2ccc(Oc3ccc(Cl)cc3O)c(Cl)c2)on1` [N‐{[3‐chloro‐4‐(4‐chloro‐2‐ hydroxyphenoxy)phenyl]methyl}‐2‐(3‐methyl‐1,2‐ oxazol‐5‐yl)acetamide (28)] yielded an IC50 of 33 nM. The result for `Cc1cc(C(=O)NCc2ccc(Oc3ccc(Cl)cc3O)c(Cl)c2)no1` [N‐{[3‐chloro‐4‐(4‐chloro‐2‐ hydroxyphenoxy)phenyl]methyl}‐5‐methyl‐1,2‐oxazole‐3‐ carboxamide (29)] reads 100 nM.

The values are drawn from BindingDB's records for doi:10.1021/bi400945y (Johns Hopkins Bloomberg School of Public Health, 2013).
